# Read-outs that look alike come from different tables or passages of the source.
# How the values were obtained:
# AML patient cells = assay: AML cell death, CellTox Green Cytotoxicity Assay; type: cell-based; conditions: Homo sapiens, one AML patient sample, 30 hours culture, FIG. 7, read-out: IC50, induction of AML cell death
# [1] = system: primary AML suspension cells; assay: AML cell viability, Cell Titer-Glo 2.0 Assay; type: cell-based, human; conditions: two different AML patient samples, 30 hours culture, Cell Titer-Glo 2.0, FIG. 6, read-out: IC50, reduction of AML cell viability
# Description: To test this, primary AML suspension cells were treated in vitro with afatinib. Cell viability was measured by Cell Titer-Glo 2.0 Assay (Promega) in triplicate for each concentration. Two different AML patient cells (1×10^5 cells/100 μL media) were cultured for 30 hours in clear 96-well flat bottom tissue culture plates (Costar, Corning) with serial drug dilutions (100 μM afatinib (LC Laboratories) serially diluted 3-fold ending at ˜0.01 μM). Media is RPMI1640 (Cellgro, Corning) supplemented with penicillin, streptomycin, L-glutamine (Gibco, ThermoFisher Scientific), and 10% heat-inactivated fetal bovine serum (Sigma-Aldrich). After cell culture, viability was assayed according to manufacturer's directions. Luminescence was measured on a BioTek Synergy2 96-well plate reader (BioTek Instruments). Data was analysed using Prism6 software (GraphPad Software) and dose curve was generated using 4PL fit.
# CLL patient cells [2] = assay: CLL cell death, CellTox Green Cytotoxicity Assay; type: cell-based; conditions: Homo sapiens, 48 hours culture, FIG. 3, read-out: IC50, induction of CLL cell death
# Excerpt: The common off-target with the best binding was ERRB2 in the EGFR family of receptors. Afatinib (an irreversible inhibitor that covalently binds to the EGFR family of receptors (including ERBB2) active tyrosine kinase domain ATP-binding site, a similar mechanism to that of the BTK inhibitors) was chosen as an example EGFR family inhibitor to test this hypothesis. […] Media is RPMI1640 (Cellgro, Corning) supplemented with penicillin, streptomycin, L-glutamine (Gibco, ThermoFisher Scientific, Waltham, Mass.), and 10% heat-inactivated fetal bovine serum (Sigma-Aldrich, St. Louis, Mo.). After cell culture, viability was measured by Cell Titer-Blue Cell Viability Assay (Promega, Madison, Wis.) according to manufacturer's directions. Non-viable cells produce less fluorescence. Measurements were done in triplicate for each concentration. Fluorescence was measured on a BioTek Synergy2 96-well plate reader (BioTek Instruments, Winooski, Vt.). Data was analysed using Prism6 software (GraphPad Software, La Jolla, Calif.) and dose curve was generated using 4PL fit. […] To test that an EGFR family inhibitor not only reduces CLL cell viability, but also induces cell death in vitro, cytotoxicity was measured by CellTox Green Cytotoxicity Assay (Promega). Dead cells produce more fluorescence in this assay. […] Fluorescence was measured on a BioTek Synergy2 96-well plate reader (BioTek Instruments). […]
# CLL patient cells [3] = assay: CLL cell viability, Cell Titer-Glo 2.0 Assay; type: cell-based, human; conditions: for IC50: Homo sapiens, CLL patient cells, 48 hours culture
# Description: (§1) After cell culture, viability was assayed according to manufacturer's directions. Luminescence was measured on a BioTek Synergy2 96-well plate reader (BioTek Instruments). Data was analysed using Prism6 software (GraphPad Software) and dose curve was generated using 4PL fit.
# as §1, with “Cell viability was measured by Cell Titer-Glo 2.0 Assay (Promega) in triplicate for each concentration. […] After” for “After”
# CLL patient cells [4] = assay: CLL cell viability, Cell Titer-Blue Cell Viability Assay; type: cell-based; conditions: Homo sapiens, 48 hours culture, FIG. 1, read-out: IC50, reduction of CLL cell viability
# Excerpt: The common off-target with the best binding was ERRB2 in the EGFR family of receptors. Afatinib (an irreversible inhibitor that covalently binds to the EGFR family of receptors (including ERBB2) active tyrosine kinase domain ATP-binding site, a similar mechanism to that of the BTK inhibitors) was chosen as an example EGFR family inhibitor to test this hypothesis. […] Media is RPMI1640 (Cellgro, Corning) supplemented with penicillin, streptomycin, L-glutamine (Gibco, ThermoFisher Scientific, Waltham, Mass.), and 10% heat-inactivated fetal bovine serum (Sigma-Aldrich, St. Louis, Mo.). After cell culture, viability was measured by Cell Titer-Blue Cell Viability Assay (Promega, Madison, Wis.) according to manufacturer's directions. Non-viable cells produce less fluorescence. Measurements were done in triplicate for each concentration. Fluorescence was measured on a BioTek Synergy2 96-well plate reader (BioTek Instruments, Winooski, Vt.). Data was analysed using Prism6 software (GraphPad Software, La Jolla, Calif.) and dose curve was generated using 4PL fit. Afatinib reduces CLL cell viability in a dose dependent manner (IC50 0.4 μM) as shown in FIG. 1 (all data points shown).
# CA46 cell line [5] = assay: NHL p53 mutated cell line viability, Cell Titer-Glo 2.0 Assay; type: cell-based; conditions: Homo sapiens; CA46 (BL-derived, p.R248Q p53), 54 hours culture, Cell Titer-Glo 2.0, FIG. 9; read-out: IC50, reduction of cell viability of p53 mutated NHL cell line
# Description: Luminescence was measured on a BioTek Synergy2 96-well plate reader (BioTek Instruments). Data was analysed using Prism6 software (GraphPad Software) and dose curve was generated using 4PL fit.
# CA46 cell line [6] = assay: NHL p53 mutated cell line death, CellTox Green Cytotoxicity Assay; type: cell-based; conditions: Homo sapiens, CA46, 54 hours culture, FIG. 10, read-out: IC50, induction of cell death of p53 mutated NHL cell line
smiles,measurement,setting,value
CN(C)C/C=C/C(=O)Nc1cc2c(Nc3ccc(F)c(Cl)c3)ncnc2cc1O[C@H]1CCOC1 [Afatinib],IC50,AML patient cells,19 µM
same,IC50,"[1]; Homo sapiens, 30 h",2.1 µM
same,IC50,[1],2.6 µM
same,IC50,CLL patient cells [2],12 µM
same,IC50,"CLL patient cells [3]; read-out: IC50, reduction of CLL cell viability (afatinib vs ibrutinib comparison), Cell Titer-Glo 2.0, FIG. 4",0.5 µM
same,IC50,"CLL patient cells [3]; Cell Titer-Glo 2.0, FIG. 2, read-out: IC50, reduction of CLL cell viability",0.3 µM
same,fold lower concentration than ibrutinib for reduction of CLL cell viability,"CLL patient cells [3]; ratio of IC50 values, FIG. 4",20 fold
same,IC50,CLL patient cells [4],0.4 µM
same,IC50,CA46 cell line [5],3 µM
same,IC50,CA46 cell line [6],22 µM

# From patent US20200129513A1, “COMPOSITIONS AND METHODS FOR TREATING HEMATOLOGIC MALIGNANCIES” (UNIVERSITY OF ROCHESTER, priority 2018, published 2020)
